In the supplement of paper PMC12076712:

Legend:
Experiment in all cases: pIC50, kinobeads binding competition
[1] = target: T1, PBK (UniProt Q96KB5); conditions: cell material: Jurkat cells
T1 sequence (whole entry): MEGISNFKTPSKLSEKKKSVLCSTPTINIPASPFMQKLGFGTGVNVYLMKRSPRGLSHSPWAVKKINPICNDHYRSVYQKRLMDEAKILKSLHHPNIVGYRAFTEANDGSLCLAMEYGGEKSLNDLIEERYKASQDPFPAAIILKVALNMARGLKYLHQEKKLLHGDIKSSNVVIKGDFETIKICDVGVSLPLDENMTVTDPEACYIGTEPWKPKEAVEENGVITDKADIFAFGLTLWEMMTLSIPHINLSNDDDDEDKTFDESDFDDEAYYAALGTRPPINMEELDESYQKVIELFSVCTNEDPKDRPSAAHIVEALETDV
In short: (§1)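 Fold changes relative to vehicle, from biological duplicates, were fitted with logistic dose-response models in the R drc package to give pIC50. These fold changes came from TMT10 LC-MS/MS quantification of digested Kinobeads-bound proteins. Compound was applied at nine concentrations (top 30 μM) either to live Jurkat cells in 1:4 steps for 60 min at 37 °C before lysis, or to Jurkat lysate or a 1:1:1:1 HEK293/K-562/HepG2/placenta lysate mix in 1:5 steps for 60 min at 4 °C.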

[2] = target: T2, CAMK4 (UniProt Q16566)
T2 sequence (whole entry): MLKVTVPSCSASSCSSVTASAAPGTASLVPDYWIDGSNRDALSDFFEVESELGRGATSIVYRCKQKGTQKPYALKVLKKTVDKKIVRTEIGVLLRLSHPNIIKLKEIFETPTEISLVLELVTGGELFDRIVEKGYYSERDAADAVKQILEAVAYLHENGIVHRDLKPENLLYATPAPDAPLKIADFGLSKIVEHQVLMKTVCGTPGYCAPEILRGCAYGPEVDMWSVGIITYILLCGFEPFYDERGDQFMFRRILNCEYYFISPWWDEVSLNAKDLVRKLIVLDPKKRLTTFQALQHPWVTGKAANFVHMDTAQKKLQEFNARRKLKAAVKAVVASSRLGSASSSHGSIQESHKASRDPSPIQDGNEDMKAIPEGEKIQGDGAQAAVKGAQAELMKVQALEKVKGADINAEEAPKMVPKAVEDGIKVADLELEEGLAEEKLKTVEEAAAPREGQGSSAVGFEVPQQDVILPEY
In short: as §1

[3] = target: UniProt P23443
In short: as §1

[4] = target: SRPK2 (UniProt P78362)
In short: as §1

[5] = target: T3, PRKG2 (UniProt Q13237); conditions: cell material: Jurkat lysate
T3 sequence (whole entry): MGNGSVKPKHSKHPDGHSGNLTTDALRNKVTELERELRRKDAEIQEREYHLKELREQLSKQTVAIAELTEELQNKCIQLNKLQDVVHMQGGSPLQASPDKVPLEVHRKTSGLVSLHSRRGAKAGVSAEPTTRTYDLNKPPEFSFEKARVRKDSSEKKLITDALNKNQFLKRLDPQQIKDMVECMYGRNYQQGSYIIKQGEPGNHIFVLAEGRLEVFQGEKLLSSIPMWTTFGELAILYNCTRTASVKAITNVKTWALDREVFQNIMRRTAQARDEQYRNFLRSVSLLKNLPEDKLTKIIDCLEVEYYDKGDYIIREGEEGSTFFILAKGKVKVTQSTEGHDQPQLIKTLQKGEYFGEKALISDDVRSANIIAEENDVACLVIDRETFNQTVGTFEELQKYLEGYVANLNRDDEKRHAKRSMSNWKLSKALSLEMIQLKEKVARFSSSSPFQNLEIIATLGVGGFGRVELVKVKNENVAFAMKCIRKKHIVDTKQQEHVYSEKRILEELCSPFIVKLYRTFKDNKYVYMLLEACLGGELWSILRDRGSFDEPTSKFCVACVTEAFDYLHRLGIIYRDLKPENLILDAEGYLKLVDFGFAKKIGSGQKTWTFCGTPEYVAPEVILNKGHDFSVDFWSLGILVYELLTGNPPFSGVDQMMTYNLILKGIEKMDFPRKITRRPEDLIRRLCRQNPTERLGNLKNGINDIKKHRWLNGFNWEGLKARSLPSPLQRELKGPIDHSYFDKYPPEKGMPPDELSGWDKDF
In short: as §1

[6] = target: TLK2 (UniProt Q86UE8); conditions: cell material: Jurkat cells
In short: as §1

[7] = target: TRRAP (UniProt Q9Y4A5); conditions: cell material: Jurkat cells
In short: as §1

[8] = target: T4, ITK (UniProt Q08881)
T4 sequence (whole entry): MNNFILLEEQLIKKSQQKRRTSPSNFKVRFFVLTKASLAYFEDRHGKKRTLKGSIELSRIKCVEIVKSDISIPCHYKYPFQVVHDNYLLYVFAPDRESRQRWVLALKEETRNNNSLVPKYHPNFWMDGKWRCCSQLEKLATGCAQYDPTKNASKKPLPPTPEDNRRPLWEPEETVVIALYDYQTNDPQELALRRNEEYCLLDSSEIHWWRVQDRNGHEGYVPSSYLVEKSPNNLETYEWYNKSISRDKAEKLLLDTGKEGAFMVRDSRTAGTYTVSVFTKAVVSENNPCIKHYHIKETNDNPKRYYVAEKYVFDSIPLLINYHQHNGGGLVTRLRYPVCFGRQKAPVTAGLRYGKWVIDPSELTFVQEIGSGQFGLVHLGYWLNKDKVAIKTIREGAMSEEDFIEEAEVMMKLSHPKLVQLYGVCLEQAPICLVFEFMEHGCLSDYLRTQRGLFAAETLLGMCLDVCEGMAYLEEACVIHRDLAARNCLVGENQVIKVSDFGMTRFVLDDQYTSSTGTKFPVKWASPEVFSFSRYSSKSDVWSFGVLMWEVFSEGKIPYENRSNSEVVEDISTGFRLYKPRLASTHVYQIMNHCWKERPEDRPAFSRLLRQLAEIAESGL
In short: as §1

[9] = target: MAST1 (UniProt Q9Y2H9); conditions: cell material: Jurkat lysate
In short: as §1

[10] = target: PRKCH (UniProt P24723)
In short: as §1

[11] = target: TLK1 (UniProt Q9UKI8)
In short: as §1

PRKCH, sequence (P24723 whole entry, looked up): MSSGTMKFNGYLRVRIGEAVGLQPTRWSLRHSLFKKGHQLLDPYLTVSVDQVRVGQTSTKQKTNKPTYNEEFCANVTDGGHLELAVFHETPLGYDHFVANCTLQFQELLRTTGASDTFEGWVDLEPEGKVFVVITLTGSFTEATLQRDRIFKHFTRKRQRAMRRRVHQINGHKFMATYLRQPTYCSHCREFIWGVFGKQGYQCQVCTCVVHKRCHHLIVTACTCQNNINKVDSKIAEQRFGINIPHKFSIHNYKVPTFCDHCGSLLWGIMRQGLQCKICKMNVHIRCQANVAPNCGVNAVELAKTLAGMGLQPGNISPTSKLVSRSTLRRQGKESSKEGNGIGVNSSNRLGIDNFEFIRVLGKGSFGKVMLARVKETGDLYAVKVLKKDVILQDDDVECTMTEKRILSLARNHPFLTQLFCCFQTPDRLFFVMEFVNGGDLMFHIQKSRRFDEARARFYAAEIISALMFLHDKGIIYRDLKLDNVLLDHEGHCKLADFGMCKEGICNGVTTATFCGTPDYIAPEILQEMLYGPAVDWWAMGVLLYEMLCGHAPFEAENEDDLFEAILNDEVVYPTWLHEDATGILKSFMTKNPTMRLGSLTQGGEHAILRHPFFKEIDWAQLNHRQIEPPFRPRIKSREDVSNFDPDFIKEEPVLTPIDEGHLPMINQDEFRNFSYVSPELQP
SRPK2, sequence (P78362 whole entry, looked up): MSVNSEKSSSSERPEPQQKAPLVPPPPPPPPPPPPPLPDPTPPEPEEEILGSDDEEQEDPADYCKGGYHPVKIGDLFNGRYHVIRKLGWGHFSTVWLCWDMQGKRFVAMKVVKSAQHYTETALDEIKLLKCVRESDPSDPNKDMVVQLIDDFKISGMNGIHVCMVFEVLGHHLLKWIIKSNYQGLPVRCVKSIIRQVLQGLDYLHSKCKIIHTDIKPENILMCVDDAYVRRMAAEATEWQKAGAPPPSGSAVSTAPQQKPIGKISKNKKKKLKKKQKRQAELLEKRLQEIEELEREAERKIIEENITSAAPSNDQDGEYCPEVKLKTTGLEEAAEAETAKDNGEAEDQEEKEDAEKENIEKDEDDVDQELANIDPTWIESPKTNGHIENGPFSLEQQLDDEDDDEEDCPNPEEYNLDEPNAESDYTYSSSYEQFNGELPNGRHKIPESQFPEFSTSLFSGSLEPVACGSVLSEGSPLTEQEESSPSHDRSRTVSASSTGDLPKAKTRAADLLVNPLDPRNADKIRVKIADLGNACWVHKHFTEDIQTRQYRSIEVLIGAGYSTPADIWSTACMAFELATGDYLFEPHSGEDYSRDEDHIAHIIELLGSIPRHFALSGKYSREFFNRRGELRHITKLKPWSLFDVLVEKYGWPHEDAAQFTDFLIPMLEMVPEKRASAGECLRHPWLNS
UniProt P23443, sequence (P23443 whole entry, looked up): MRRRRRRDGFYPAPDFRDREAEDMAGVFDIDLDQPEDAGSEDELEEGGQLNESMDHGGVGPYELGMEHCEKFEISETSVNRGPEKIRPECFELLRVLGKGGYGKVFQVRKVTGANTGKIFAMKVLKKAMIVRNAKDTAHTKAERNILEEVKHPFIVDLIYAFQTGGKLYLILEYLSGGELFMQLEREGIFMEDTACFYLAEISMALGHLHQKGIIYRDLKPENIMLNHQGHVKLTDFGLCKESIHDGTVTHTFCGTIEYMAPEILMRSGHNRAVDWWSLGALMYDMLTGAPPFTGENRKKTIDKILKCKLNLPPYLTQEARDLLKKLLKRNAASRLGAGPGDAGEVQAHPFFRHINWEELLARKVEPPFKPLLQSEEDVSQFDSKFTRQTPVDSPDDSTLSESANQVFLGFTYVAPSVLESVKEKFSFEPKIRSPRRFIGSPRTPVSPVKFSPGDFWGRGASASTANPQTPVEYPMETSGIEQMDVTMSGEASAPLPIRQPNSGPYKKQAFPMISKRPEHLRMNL
TLK1, sequence (Q9UKI8 whole entry): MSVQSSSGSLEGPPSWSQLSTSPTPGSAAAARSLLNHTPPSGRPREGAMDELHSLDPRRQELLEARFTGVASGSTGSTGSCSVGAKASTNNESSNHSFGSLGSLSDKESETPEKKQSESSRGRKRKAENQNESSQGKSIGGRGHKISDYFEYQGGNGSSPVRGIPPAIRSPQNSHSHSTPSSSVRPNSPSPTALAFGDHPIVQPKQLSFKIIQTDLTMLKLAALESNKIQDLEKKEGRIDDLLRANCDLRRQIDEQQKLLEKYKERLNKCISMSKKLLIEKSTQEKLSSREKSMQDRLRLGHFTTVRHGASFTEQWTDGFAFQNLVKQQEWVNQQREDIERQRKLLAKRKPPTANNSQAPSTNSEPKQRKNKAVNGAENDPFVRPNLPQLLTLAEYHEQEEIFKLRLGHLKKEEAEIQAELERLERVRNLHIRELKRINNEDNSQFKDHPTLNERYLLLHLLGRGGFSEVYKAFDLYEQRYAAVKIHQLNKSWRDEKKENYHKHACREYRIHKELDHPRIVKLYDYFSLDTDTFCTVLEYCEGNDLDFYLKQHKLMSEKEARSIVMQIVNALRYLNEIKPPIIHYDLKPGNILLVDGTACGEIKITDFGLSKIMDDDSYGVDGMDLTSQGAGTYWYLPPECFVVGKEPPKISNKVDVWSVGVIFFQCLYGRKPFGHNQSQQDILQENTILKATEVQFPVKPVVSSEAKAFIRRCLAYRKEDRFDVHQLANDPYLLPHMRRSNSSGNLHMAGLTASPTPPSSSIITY
MAST1, sequence (Q9Y2H9 whole entry, looked up): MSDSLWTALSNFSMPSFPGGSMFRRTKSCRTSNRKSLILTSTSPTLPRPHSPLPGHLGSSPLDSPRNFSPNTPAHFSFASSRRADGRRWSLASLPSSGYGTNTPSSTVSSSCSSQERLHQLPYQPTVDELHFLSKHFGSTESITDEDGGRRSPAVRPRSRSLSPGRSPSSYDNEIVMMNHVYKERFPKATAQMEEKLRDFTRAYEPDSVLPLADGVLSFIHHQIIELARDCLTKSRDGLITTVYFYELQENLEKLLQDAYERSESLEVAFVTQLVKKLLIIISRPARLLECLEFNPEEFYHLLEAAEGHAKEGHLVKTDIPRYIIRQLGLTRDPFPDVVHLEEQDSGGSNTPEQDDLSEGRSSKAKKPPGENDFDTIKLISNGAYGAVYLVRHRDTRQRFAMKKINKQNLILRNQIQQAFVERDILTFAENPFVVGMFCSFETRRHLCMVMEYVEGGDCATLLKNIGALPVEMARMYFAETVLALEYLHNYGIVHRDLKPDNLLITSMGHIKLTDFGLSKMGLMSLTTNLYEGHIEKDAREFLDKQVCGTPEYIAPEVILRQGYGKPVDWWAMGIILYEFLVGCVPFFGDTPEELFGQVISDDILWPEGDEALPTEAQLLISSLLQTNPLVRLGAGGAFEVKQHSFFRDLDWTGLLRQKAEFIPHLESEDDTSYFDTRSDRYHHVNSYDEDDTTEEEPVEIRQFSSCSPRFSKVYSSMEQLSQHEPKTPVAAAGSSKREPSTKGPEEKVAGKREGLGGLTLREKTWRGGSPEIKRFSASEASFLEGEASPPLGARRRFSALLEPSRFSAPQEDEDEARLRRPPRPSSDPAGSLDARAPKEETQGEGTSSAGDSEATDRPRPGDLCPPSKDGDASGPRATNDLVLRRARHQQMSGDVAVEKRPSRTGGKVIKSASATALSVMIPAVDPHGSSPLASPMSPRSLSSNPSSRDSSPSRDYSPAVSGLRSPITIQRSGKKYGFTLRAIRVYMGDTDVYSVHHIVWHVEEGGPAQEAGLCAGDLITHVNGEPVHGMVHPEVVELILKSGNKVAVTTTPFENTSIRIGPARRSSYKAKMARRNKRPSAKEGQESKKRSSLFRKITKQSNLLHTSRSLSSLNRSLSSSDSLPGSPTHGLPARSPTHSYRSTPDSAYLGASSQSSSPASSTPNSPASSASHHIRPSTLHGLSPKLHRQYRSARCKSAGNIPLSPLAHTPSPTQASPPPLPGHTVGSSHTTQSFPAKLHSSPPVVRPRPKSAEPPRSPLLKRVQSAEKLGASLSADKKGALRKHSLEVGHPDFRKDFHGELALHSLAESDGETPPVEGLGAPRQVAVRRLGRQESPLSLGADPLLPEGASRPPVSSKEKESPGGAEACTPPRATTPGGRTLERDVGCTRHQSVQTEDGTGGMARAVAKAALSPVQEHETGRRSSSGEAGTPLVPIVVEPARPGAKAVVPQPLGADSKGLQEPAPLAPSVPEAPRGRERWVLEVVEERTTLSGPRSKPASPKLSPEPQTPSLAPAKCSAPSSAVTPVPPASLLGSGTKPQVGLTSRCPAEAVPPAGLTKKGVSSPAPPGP
TLK2, sequence (Q86UE8 whole entry, looked up): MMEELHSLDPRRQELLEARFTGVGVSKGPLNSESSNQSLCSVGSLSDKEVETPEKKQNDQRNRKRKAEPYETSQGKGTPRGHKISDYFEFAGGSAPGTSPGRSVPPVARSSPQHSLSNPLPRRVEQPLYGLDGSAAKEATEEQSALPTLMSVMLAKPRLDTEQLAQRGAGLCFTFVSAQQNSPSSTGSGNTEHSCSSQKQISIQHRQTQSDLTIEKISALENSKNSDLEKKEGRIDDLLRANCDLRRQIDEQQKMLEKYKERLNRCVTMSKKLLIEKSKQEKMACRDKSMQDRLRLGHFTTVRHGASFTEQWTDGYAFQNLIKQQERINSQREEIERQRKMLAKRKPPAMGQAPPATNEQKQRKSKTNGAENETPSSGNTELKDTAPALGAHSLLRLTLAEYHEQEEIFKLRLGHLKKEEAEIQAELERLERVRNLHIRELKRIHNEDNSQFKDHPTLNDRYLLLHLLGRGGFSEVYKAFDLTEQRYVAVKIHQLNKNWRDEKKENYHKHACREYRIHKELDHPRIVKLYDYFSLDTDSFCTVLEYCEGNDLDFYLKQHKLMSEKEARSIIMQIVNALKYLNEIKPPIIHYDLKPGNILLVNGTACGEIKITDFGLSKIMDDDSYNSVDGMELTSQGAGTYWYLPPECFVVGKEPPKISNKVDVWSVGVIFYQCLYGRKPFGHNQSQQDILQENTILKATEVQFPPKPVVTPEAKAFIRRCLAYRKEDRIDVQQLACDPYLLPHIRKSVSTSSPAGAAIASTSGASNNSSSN

Row | Compound | pIC50 [1] | pIC50 ([2]; cell material: Jurkat cells) | pIC50 ([2]; cell material: Jurkat lysate) | pIC50 ([3]; cell material: Jurkat lysate) | pIC50 ([4]; cell material: Jurkat cells) | pIC50 ([4]; cell material: Jurkat lysate) | pIC50 [5] | pIC50 [6] | pIC50 [7] | pIC50 ([8]; cell material: Jurkat cells) | pIC50 ([8]; cell material: Jurkat lysate) | pIC50 [9] | pIC50 ([10]; cell material: Jurkat cells) | pIC50 ([10]; cell material: Jurkat lysate) | pIC50 ([11]; cell material: Lysate mix) | pIC50 ([11]; cell material: Jurkat cells) | pIC50 ([3]; cell material: Jurkat cells)
1 | O=C(NCCNC(=O)c1cc(Nc2cc(C3CC3)[nH]n2)nc(N2CCN(Cc3ccc(S(=O)(=O)F)cc3)CC2)n1)OC1CC/C=C/CCC1 (centres undefined) | < 4.52 | < 4.52 | < 4.52 | < 4.52 | < 4.52 | < 4.52 | < 4.52 | < 4.52 | < 4.52 | 6.7 | < 4.52 | 4.57 | < 4.52 | < 4.52 | – | – | –
2 | CCNC(=O)c1cc(Nc2cc(C)[nH]n2)nc(N2CCN(Cc3ccc(S(=O)(=O)F)cc3)CC2)n1 | – | – | – | – | – | – | – | – | – | – | – | – | – | – | 4.92 | – | –
3 | C#CCNC(=O)c1cc(Nc2cc(C3CC3)[nH]n2)nc(N2CCN(Cc3ccc(S(=O)(=O)F)cc3)CC2)n1 | < 4.52 | 5.09 | – | < 4.52 | < 4.52 | < 4.52 | < 4.52 | < 4.52 | < 4.52 | 6.78 | 5.4 | 5.92 | – | < 4.52 | – | 4.82 | 5.19
